{"source": "paper PMC8822125", "about": "“RW-BP100-4D, a Promising Antimicrobial Candidate With Broad-Spectrum Bactericidal Activity” (Frontiers in Microbiology, 2022)", "key": {"[1]": {"tested_on": "Acinetobacter baumannii 34AB", "settings": "Acinetobacter baumannii 34AB (tet(X3)); mean of three repeated experiments", "method": "(§1) To compare the antibacterial activity of RW-BP100 and its serial derivatives, the MIC against S. aureus ATCC29213 and E. coli ATCC25922 were determined using broth microdilution method according to the guidelines of Clinical and Laboratory Standards Institute (CLSI) M100-S25 ([CLSI, 2015]). Briefly, peptides were dissolved in sterilized water and twofold diluted in Mueller-Hinton (MH) broth (Beijing Land Bridge Technology) at the concentration ranges of 0.098–100 μg/mL. Then the peptides were mixed with an equal volume (100 μL) of bacterial suspensions of 10^6 CFU/mL in a sterilized 96-well microtiter plate. […] To further evaluate the antimicrobial spectrum of RW-BP100-4D, MICs were determined against a more variety of Gram-positive and Gram-negative bacterial species, and the fungal strains (according to CLSI M38 guideline). […] MIC and MBC testing were performed with three independent repeats."}, "[2]": {"tested_on": "Campylobacter jejuni ATCC33291", "settings": "mean of three repeated experiments", "method": "as §1"}, "Enterococcus faecalis 32": {"tested_on": "Enterococcus faecalis 32", "settings": "Enterococcus faecalis 32 (optrA); mean of three repeated experiments", "method": "as §1"}, "[3]": {"tested_on": "Enterococcus faecalis JH2-2", "settings": "mean of three repeated experiments", "method": "as §1"}, "Escherichia coli XG-E1": {"tested_on": "Escherichia coli XG-E1", "settings": "Escherichia coli XG-E1 (blaNDM-5, mcr-1); mean of three repeated experiments", "method": "as §1"}, "[4]": {"tested_on": "Klebsiella pneumoniae XG-Kpn03", "settings": "Klebsiella pneumoniae XG-Kpn03 (blaNDM-5); mean of three repeated experiments", "method": "as §1"}, "[5]": {"tested_on": "Listeria monocytogenes ATCC19115", "settings": "mean of three repeated experiments", "method": "as §1"}, "[6]": {"tested_on": "Listeria monocytogenes LM08", "settings": "Listeria monocytogenes LM08 (tetM); mean of three repeated experiments", "method": "as §1"}, "[7]": {"tested_on": "Pseudomonas aeruginosa 42", "settings": "mean of three repeated experiments", "method": "as §1"}, "[8]": {"tested_on": "Pseudomonas fluorescens AC04", "settings": "mean of three repeated experiments", "method": "as §1"}, "[9]": {"tested_on": "Salmonella enterica ATCC13076", "settings": "mean of three repeated experiments", "method": "as §1"}, "[10]": {"tested_on": "Shewanella putrefaction ATCC49138", "settings": "mean of three repeated experiments", "method": "as §1"}, "[11]": {"tested_on": "Staphylococcus epidermidis ATCC29887", "settings": "mean of three repeated experiments", "method": "as §1"}, "[12]": {"tested_on": "Streptococcus agalactiae ATCC13813", "settings": "mean of three repeated experiments", "method": "as §1"}, "Escherichia coli 47EC": {"tested_on": "Escherichia coli 47EC", "settings": "Escherichia coli 47EC (tet(X4)); mean of three repeated experiments"}}, "note": "Several values for one entry are separate records, joined by “and”; a condition that tells them apart may be missing. Equal values may be shown once. Where a SMILES comes first, the peptide text is derived from it."}
{"molecule": "CC[C@H](C)[C@H](NC(=O)[C@H](CCCNC(=N)N)NC(=O)[C@H](CCCNC(=N)N)NC(=O)[C@@H](Cc1ccccc1)NC(=O)[C@H](CC(C)C)NC(=O)[C@H](CCCNC(=N)N)NC(=O)[C@@H](N)CCCNC(=N)N)C(=O)N[C@@H](CC(C)C)C(=O)N[C@@H](CCCNC(=N)N)C(=O)N[C@@H](Cc1c[nH]c2ccccc12)C(=O)N[C@@H](CC(C)C)C(N)=O", "note": "[RW-BP100-4D] (HELM PEPTIDE1{R.R.L.[dF].R.R.I.L.R.W.L.[am]}$$$$V2.0)", "values": [{"measurement": "MBC of peptides", "setting": "[1]", "value": 12, "unit": "µg/mL"}, {"measurement": "MIC of peptides", "setting": "[1]", "value": 6, "unit": "µg/mL"}, {"measurement": "MBC of peptides", "setting": "[2]", "value": 12, "unit": "µg/mL"}, {"measurement": "MIC of peptides", "setting": "[2]", "value": 6, "unit": "µg/mL"}, {"measurement": "MBC of peptides", "setting": "Enterococcus faecalis 32", "value": 50, "unit": "µg/mL"}, {"measurement": "MIC of peptides", "setting": "Enterococcus faecalis 32", "value": 12, "unit": "µg/mL"}, {"measurement": "MBC of peptides", "setting": "[3]", "value": 50, "unit": "µg/mL"}, {"measurement": "MIC of peptides", "setting": "[3]", "value": 12, "unit": "µg/mL"}, {"measurement": "MBC of peptides", "setting": "Escherichia coli XG-E1", "value": 6, "unit": "µg/mL"}, {"measurement": "MIC of peptides", "setting": "Escherichia coli XG-E1", "value": 3, "unit": "µg/mL"}, {"measurement": "MBC of peptides", "setting": "[4]", "value": 50, "unit": "µg/mL"}, {"measurement": "MIC of peptides", "setting": "[4]", "value": 25, "unit": "µg/mL"}, {"measurement": "MBC of peptides", "setting": "[5]", "value": 6, "unit": "µg/mL"}, {"measurement": "MIC of peptides", "setting": "[5]", "value": 3, "unit": "µg/mL"}, {"measurement": "MBC of peptides", "setting": "[6]", "value": 6, "unit": "µg/mL"}, {"measurement": "MIC of peptides", "setting": "[6]", "value": 3, "unit": "µg/mL"}, {"measurement": "MBC of peptides", "setting": "[7]", "value": 50, "unit": "µg/mL"}, {"measurement": "MIC of peptides", "setting": "[7]", "value": 12, "unit": "µg/mL"}, {"measurement": "MBC of peptides", "setting": "[8]", "value": 12, "unit": "µg/mL"}, {"measurement": "MIC of peptides", "setting": "[8]", "value": 6, "unit": "µg/mL"}, {"measurement": "MBC of peptides", "setting": "[9]", "value": 6, "unit": "µg/mL"}, {"measurement": "MIC of peptides", "setting": "[9]", "value": 3, "unit": "µg/mL"}, {"measurement": "MBC of peptides", "setting": "[10]", "value": 12, "unit": "µg/mL"}, {"measurement": "MIC of peptides", "setting": "[10]", "value": 6, "unit": "µg/mL"}, {"measurement": "MBC of peptides", "setting": "[11]", "value": 6, "unit": "µg/mL"}, {"measurement": "MIC of peptides", "setting": "[11]", "value": 3, "unit": "µg/mL"}, {"measurement": "MBC of peptides", "setting": "[12]", "value": 6, "unit": "µg/mL"}, {"measurement": "MIC of peptides", "setting": "[12]", "value": 3, "unit": "µg/mL"}, {"measurement": "MBC of peptides", "setting": "Escherichia coli 47EC", "value": 12, "unit": "µg/mL"}, {"measurement": "MIC of peptides", "setting": "Escherichia coli 47EC", "value": "3 µg/mL and 6 µg/mL"}]}
